In the NIST ThermoML archive (doi:10.1016/j.fluid.2011.02.010):
± gives the expanded uncertainty stated by the source.

Test: xn = mol fraction of the nth substance listed
Settings: 101 kPa, Liquid; for speed of sound: Frequency=2 MHz

CCCCn1cc[n+](C)c1.[Cl-] [1-butyl-3-methylimidazolium chloride] + C[S+](C)[O-]
Settings	mass density [kg/m3]	speed of sound [m/s]	viscosity [mPa·s]
298.15 K, x1 = 0.0111	1096.4 ± 10	1514 ± 9	2.13 ± 0.19
298.15 K, x1 = 0.0341	1096.96 ± 10	1544 ± 9	2.62 ± 0.22
298.15 K, x1 = 0.0713	1097.81 ± 10	1582 ± 9	3.43 ± 0.28
298.15 K, x1 = 0.1122	1098.51 ± 10	1618 ± 9	4.35 ± 0.33
298.15 K, x1 = 0.1731	1098.36 ± 10	1658 ± 10	5.83 ± 0.42
298.15 K, x1 = 0.2433	1097.41 ± 10	1694 ± 10	7.62 ± 0.54
298.15 K, x1 = 0.3032	1095.8 ± 10	1718 ± 10	9.17 ± 0.63
298.15 K, x1 = 0.3705	1093.86 ± 10	1742 ± 10	10.99 ± 0.75
298.15 K, x1 = 0.4746	1090.52 ± 10	1778 ± 10	13.86 ± 0.93
298.15 K, x1 = 0.5997	1086.4 ± 10	1810 ± 10	17.36 ± 1.1
298.15 K, x1 = 0.7115	1083.11 ± 10	1834 ± 11	20.5 ± 1.3
298.15 K, x1 = 0.843	1079.14 ± 10	1848 ± 11	24.28 ± 1.6
298.15 K, x1 = 0.9445	1076.25 ± 10	1856 ± 11	27.39 ± 1.8
298.15 K, x1 = 1	1074.43 ± 10	1868 ± 11	29.21 ± 1.9
303.15 K, x1 = 0.0111	1093.12 ± 10	1490 ± 9	1.93 ± 0.18
303.15 K, x1 = 0.0341	1094.05 ± 10	1522 ± 9	2.35 ± 0.21
303.15 K, x1 = 0.0713	1094.88 ± 10	1562 ± 9	3.04 ± 0.25
303.15 K, x1 = 0.1122	1095.16 ± 10	1598 ± 9	3.86 ± 0.3
303.15 K, x1 = 0.1731	1095.51 ± 10	1638 ± 10	5.12 ± 0.38
303.15 K, x1 = 0.2433	1094.39 ± 10	1672 ± 10	6.66 ± 0.48
303.15 K, x1 = 0.3032	1092.84 ± 10	1698 ± 10	8.04 ± 0.56
303.15 K, x1 = 0.3705	1090.91 ± 10	1718 ± 10	9.63 ± 0.66
303.15 K, x1 = 0.4746	1087.56 ± 10	1752 ± 10	12.14 ± 0.82
303.15 K, x1 = 0.5997	1083.53 ± 10	1792 ± 10	15.22 ± 1
303.15 K, x1 = 0.7115	1080.09 ± 10	1820 ± 10	17.99 ± 1.2
303.15 K, x1 = 0.843	1076.19 ± 10	1844 ± 11	21.34 ± 1.4
303.15 K, x1 = 0.9445	1073.27 ± 10	1852 ± 11	24.12 ± 1.6
303.15 K, x1 = 1	1071.38 ± 10	1860 ± 11	25.72 ± 1.7
308.15 K, x1 = 0.0111	1087.12 ± 10	1478 ± 9	1.77 ± 0.17
308.15 K, x1 = 0.0341	1088.6 ± 10	1510 ± 9	2.12 ± 0.19
308.15 K, x1 = 0.0713	1089.65 ± 10	1550 ± 9	2.68 ± 0.23
308.15 K, x1 = 0.1122	1090.4 ± 10	1586 ± 9	3.31 ± 0.27
308.15 K, x1 = 0.1731	1090.8 ± 10	1630 ± 10	4.34 ± 0.33
308.15 K, x1 = 0.2433	1089.91 ± 10	1664 ± 10	5.53 ± 0.41
308.15 K, x1 = 0.3032	1088.61 ± 10	1690 ± 10	6.63 ± 0.47
308.15 K, x1 = 0.3705	1086.93 ± 10	1712 ± 10	7.91 ± 0.55
308.15 K, x1 = 0.4746	1083.87 ± 10	1748 ± 10	9.96 ± 0.68
308.15 K, x1 = 0.5997	1080.1 ± 10	1786 ± 10	12.5 ± 0.84
308.15 K, x1 = 0.7115	1076.93 ± 10	1812 ± 10	14.79 ± 0.99
308.15 K, x1 = 0.843	1072.98 ± 10	1832 ± 11	17.57 ± 1.2
308.15 K, x1 = 0.9445	1070.09 ± 10	1840 ± 11	19.84 ± 1.3
308.15 K, x1 = 1	1068.32 ± 10	1848 ± 11	21.21 ± 1.4
318.15 K, x1 = 0.0111	1077.1 ± 10	1450 ± 9	1.51 ± 0.16
318.15 K, x1 = 0.0341	1078.9 ± 10	1484 ± 9	1.82 ± 0.18
318.15 K, x1 = 0.0713	1080.54 ± 10	1520 ± 9	2.3 ± 0.2
318.15 K, x1 = 0.1122	1081.62 ± 10	1550 ± 9	2.87 ± 0.24
318.15 K, x1 = 0.1731	1082.42 ± 10	1592 ± 9	3.76 ± 0.3
318.15 K, x1 = 0.2433	1081.92 ± 10	1634 ± 10	4.81 ± 0.36
318.15 K, x1 = 0.3032	1080.89 ± 10	1662 ± 10	5.78 ± 0.42
318.15 K, x1 = 0.3705	1079.44 ± 10	1688 ± 10	6.93 ± 0.49
318.15 K, x1 = 0.4746	1076.76 ± 10	1720 ± 10	8.79 ± 0.61
318.15 K, x1 = 0.5997	1073.27 ± 10	1758 ± 10	11.1 ± 0.76
318.15 K, x1 = 0.7115	1070.22 ± 10	1788 ± 10	13.18 ± 0.89
318.15 K, x1 = 0.843	1066.58 ± 10	1808 ± 10	15.7 ± 1
318.15 K, x1 = 0.9445	1063.76 ± 10	1814 ± 10	17.76 ± 1.2
318.15 K, x1 = 1	1062.14 ± 10	1820 ± 11	18.97 ± 1.2
328.15 K, x1 = 0.0111	1067.04 ± 10	1422 ± 9	1.17 ± 0.13
328.15 K, x1 = 0.0341	1069.24 ± 10	1454 ± 9	1.44 ± 0.15
328.15 K, x1 = 0.0713	1071.41 ± 10	1490 ± 9	1.89 ± 0.18
328.15 K, x1 = 0.1122	1072.82 ± 10	1520 ± 9	2.37 ± 0.21
328.15 K, x1 = 0.1731	1074.01 ± 10	1564 ± 9	3.14 ± 0.26
328.15 K, x1 = 0.2433	1073.91 ± 10	1604 ± 9	4.06 ± 0.31
328.15 K, x1 = 0.3032	1073.16 ± 10	1630 ± 10	4.89 ± 0.37
328.15 K, x1 = 0.3705	1071.9 ± 10	1658 ± 10	5.92 ± 0.43
328.15 K, x1 = 0.4746	1069.49 ± 10	1694 ± 10	7.6 ± 0.54
328.15 K, x1 = 0.5997	1066.39 ± 10	1730 ± 10	9.68 ± 0.67
328.15 K, x1 = 0.7115	1063.48 ± 10	1760 ± 10	11.56 ± 0.78
328.15 K, x1 = 0.843	1060.06 ± 10	1788 ± 10	13.82 ± 0.93
328.15 K, x1 = 0.9445	1057.44 ± 10	1796 ± 10	15.65 ± 1
328.15 K, x1 = 1	1055.89 ± 10	1804 ± 10	16.74 ± 1.1
